Data published in US20230413887A1, “2'-FUCOSYLLACTOSE FOR USE IN STIMULATING F. PRAUSNITZII ABUNDANCE” (FrieslandCampina Nederland B.V., priority 2020, published 2023).
Entries after “also recorded” stand apart in the source; their conditions may differ.

Legend:
F. prausnitzii [1] = details: cited from earlier work
F. prausnitzii [2] = details: co-culture with Bifidobacterium longum subsp. infantis; cited from earlier work
F. prausnitzii [3] = details: rats; cited from earlier work
[4] = system: Faecalibacterium prausnitzii; assay: in vitro incubation of 2′-FL with fecal inoculum of adult and elderly subjects, 16S rRNA microbiota composition; format: cell-based, human; details: 2′-FL 10 mg/ml, 10% (v/v) fecal inoculum, samples 0-24 h, adults 25-50 yrs and 70-79 yrs
Method: A group of twelve randomly contacted adults—three men and three women aged 25-50 yrs and three men and three women aged 70-79 yrs—donated their fecal material for an in vitro study. Anoxically cryo-conserved fecal inoculum was defrosted and transferred to a 96% N2 and 4% H2 filled anaerobic chamber. Incubation of 2′-FL (10 mg/ml) was done with 10% (v/v) fecal inoculum in duplicate, while incubations without fecal inoculum and without carbohydrates served as controls using the standard ileal efflux medium. Samples were collected 0 h, 4 h, 10 h and 24 h after inoculation.
Three aliquots of 1 ml from each culture bottle were then distributed into 1.5 ml Eppendorf tubes. One of these aliquots was heated at 100° C. for 5 min to determine carbohydrates in the supernatant. Afterwards, all samples were centrifuged at 4° C. at 18600 relative centrifugal force (rcf) for 10 min. The supernatants from the other two tubes were pooled and stored at −20° C. for metabolite measurement, while the remaining pellets were stored at −80 C for microbiota composition analysis.
The microbiota composition was determined by sequencing of barcoded 16S ribosomal RNA (rRNA) gene amplicons using Illumina Hiseq2500 (2×150 bp). […]

Substance: 2′-fucosyllactose [2′-FL]
- effect on F. prausnitzii abundance in monocultures (F. prausnitzii [1]): does not affect
- effect on F. prausnitzii abundance in co-culture (F. prausnitzii [2]): not able to increase
- F. prausnitzii abundance as a result of 2′-FL administration (F. prausnitzii [3]): decrease
- abundance of F. prausnitzii as compared to control medium without 2′-FL [4]: increase the abundance; also recorded: higher abundance
